Assay: recombinant UMI read abundance after kanamycin selection (control-corrected) (log10(CPM+1)); higher = more efficient recombination; extreme values may be limits of the assay; sequences stand for … in AGTGCAGAGAAAATCGGCCAGTTTTCTCTGCCTGCAGTCCGCATGCCGTGGGACCCCTTGGGTTCTAACCTGTTGCCTAGATTTATGCAGCGGACTGCCTTTCTCCCAAAGTGATAAACCGG…AGGTTGGTTTCACT; site = the 11-nt donor
Procedure, shortened: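 Values are reported as log10(CPM+1), obtained by converting sequencing counts to CPM, averaging replicates and scaling by control-derived factors. The counts came from recombinant UMIs amplified by PCR across the donor–target junction. These UMIs came from a pooled Escherichia coli screen of donor and donor-binding-loop pairs for the IS621 bridge recombinase, plated with IPTG (0.07 mM) plus kanamycin or left unselected, in two replicates each.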
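Also: IS621 bridge recombinase in Escherichia coli cells against a fixed T5 target plasmid.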

Sequence: CTGTTACCATGGACCGGTTTTCCCGGTAATCCGTATTTGCT (site CTGCTACCTAG)
- recombinant UMI read abundance (log10): 0.146

Sequence: CTGTTACCATGGACCGGTTTTCCCGGTAATCCGTATTTGCT (site CTGGTACCTAG)
- recombinant UMI read abundance (log10): 0

Sequence: CTGTTACCATGGACCGGTTTTCCCGGTAATCCGTATTTGCT (site CTGTTACCTAG)
- recombinant UMI read abundance (log10): 0

Sequence: CTGTTTACATGGACCGGTTTTCCCGGTAATCCGTATTTGCT (site CAGTTTACTAG)
- recombinant UMI read abundance (log10): 0.405

Sequence: CTGTTTACATGGACCGGTTTTCCCGGTAATCCGTATTTGCT (site CCGTTTACTAG)
- recombinant UMI read abundance (log10): 1.15

Sequence: CTGTTTACATGGACCGGTTTTCCCGGTAATCCGTATTTGCT (site CGGTTTACTAG)
- recombinant UMI read abundance (log10): 0

Sequence: CTGTTTACATGGACCGGTTTTCCCGGTAATCCGTATTTGCT (site CTGTTTACTAG)
- recombinant UMI read abundance (log10): 2.02

Sequence: CTTAGCTCATGGACCGGTTTTCCCGGTAATCCGTATTTGCT (site CTTAGCTCTAG)
- recombinant UMI read abundance (log10): 0

Sequence: CTTCAGCCATGGACCGGTTTTCCCGGTAATCCGTATTTGGA (site CTTCAGCCTTC)
- recombinant UMI read abundance (log10): 0

Sequence: CTTCCCTCATGGACCGGTTTTCCCGGTAATCCGTATTTGTA (site CTTCACTCTTA)
- recombinant UMI read abundance (log10): 0.00365

Sequence: CTTCCCTCATGGACCGGTTTTCCCGGTAATCCGTATTTGTA (site CTTCCCTCTTA)
- recombinant UMI read abundance (log10): 2.49

Sequence: CTTCCCTCATGGACCGGTTTTCCCGGTAATCCGTATTTGTA (site CTTCGCTCTTA)
- recombinant UMI read abundance (log10): 0.00376

Sequence: CTTCCCTCATGGACCGGTTTTCCCGGTAATCCGTATTTGTA (site CTTCTCTCTTA)
- recombinant UMI read abundance (log10): 0.434

Sequence: CTTCTAACATGGACCGGTTTTCCCGGTAATCCGTATTTGCG (site CTTCTAACTCG)
- recombinant UMI read abundance (log10): 0.213

Sequence: CTTCTCGCATGGACCGGTTTTCCCGGTAATCCGTATTTGTA (site CTTCTCACTTA)
- recombinant UMI read abundance (log10): 0.459

Sequence: CTTCTCGCATGGACCGGTTTTCCCGGTAATCCGTATTTGTA (site CTTCTCCCTTA)
- recombinant UMI read abundance (log10): 0.0264

Sequence: CTTCTCGCATGGACCGGTTTTCCCGGTAATCCGTATTTGTA (site CTTCTCGCTTA)
- recombinant UMI read abundance (log10): 1.29

Sequence: CTTCTCGCATGGACCGGTTTTCCCGGTAATCCGTATTTGTA (site CTTCTCTCTTA)
- recombinant UMI read abundance (log10): 0.0056

Sequence: CTTCTCTCATGGACCGGTTTTCCCGGTAATCCGTATTTGGA (site CTTCTCTCTTA)
- recombinant UMI read abundance (log10): 0.0983

Sequence: CTTCTCTCATGGACCGGTTTTCCCGGTAATCCGTATTTGGA (site CTTCTCTCTTC)
- recombinant UMI read abundance (log10): 1.35

Sequence: CTTCTCTCATGGACCGGTTTTCCCGGTAATCCGTATTTGGA (site CTTCTCTCTTG)
- recombinant UMI read abundance (log10): 0

Sequence: CTTCTCTCATGGACCGGTTTTCCCGGTAATCCGTATTTGGA (site CTTCTCTCTTT)
- recombinant UMI read abundance (log10): 0.925

Sequence: CTTCTCTCATGGACCGGTTTTCCCGGTAATCCGTATTTGTC (site CTTCTCTCTAA)
- recombinant UMI read abundance (log10): 1.6

Sequence: CTTCTCTCATGGACCGGTTTTCCCGGTAATCCGTATTTGTC (site CTTCTCTCTCA)
- recombinant UMI read abundance (log10): 0.0104

Sequence: CTTCTCTCATGGACCGGTTTTCCCGGTAATCCGTATTTGTC (site CTTCTCTCTGA)
- recombinant UMI read abundance (log10): 2.45

Sequence: CTTCTCTCATGGACCGGTTTTCCCGGTAATCCGTATTTGTC (site CTTCTCTCTTA)
- recombinant UMI read abundance (log10): 0.836

Sequence: CTTGAAACATGGACCGGTTTTCCCGGTAATCCGTATTTGCA (site CTAGAAACTTG)
- recombinant UMI read abundance (log10): 1.31

Sequence: CTTGAAACATGGACCGGTTTTCCCGGTAATCCGTATTTGCA (site CTCGAAACTTG)
- recombinant UMI read abundance (log10): 0.00453

Sequence: CTTGAAACATGGACCGGTTTTCCCGGTAATCCGTATTTGCA (site CTGGAAACTTG)
- recombinant UMI read abundance (log10): 0.538

Sequence: CTTGAAACATGGACCGGTTTTCCCGGTAATCCGTATTTGCA (site CTTGAAACTTG)
- recombinant UMI read abundance (log10): 2.07

Sequence: CTTGACGCATGGACCGGTTTTCCCGGTAATCCGTATTTGGT (site CTTGACGCTAC)
- recombinant UMI read abundance (log10): 0.601

Sequence: CTTGAGTCATGGACCGGTTTTCCCGGTAATCCGTATTTGAT (site CTTGAGTCTAT)
- recombinant UMI read abundance (log10): 2.13

Sequence: CTTGAGTCATGGACCGGTTTTCCCGGTAATCCGTATTTGTT (site CTTGAGTCTAA)
- recombinant UMI read abundance (log10): 2.46

Sequence: CTTGTAACATGGACCGGTTTTCCCGGTAATCCGTATTTGGC (site CTTGTAACTGC)
- recombinant UMI read abundance (log10): 0

Sequence: CTTGTAGCATGGACCGGTTTTCCCGGTAATCCGTATTTGTC (site CTTGTAGCTGA)
- recombinant UMI read abundance (log10): 0.797

Sequence: CTTGTCTCATGGACCGGTTTTCCCGGTAATCCGTATTTGTA (site CTTATCTCTTA)
- recombinant UMI read abundance (log10): 1.78

Sequence: CTTGTCTCATGGACCGGTTTTCCCGGTAATCCGTATTTGTA (site CTTCTCTCTTA)
- recombinant UMI read abundance (log10): 0.856

Sequence: CTTGTCTCATGGACCGGTTTTCCCGGTAATCCGTATTTGTA (site CTTGTCTCTTA)
- recombinant UMI read abundance (log10): 2.82

Sequence: CTTGTCTCATGGACCGGTTTTCCCGGTAATCCGTATTTGTA (site CTTTTCTCTTA)
- recombinant UMI read abundance (log10): 0

Sequence: CTTGTGTCATGGACCGGTTTTCCCGGTAATCCGTATTTGTG (site CTTGTGTCTCA)
- recombinant UMI read abundance (log10): 2.16

Sequence: CTTGTTCCATGGACCGGTTTTCCCGGTAATCCGTATTTGGT (site ATTGTTCCTAC)
- recombinant UMI read abundance (log10): 0.0155

Sequence: CTTGTTCCATGGACCGGTTTTCCCGGTAATCCGTATTTGGT (site CTTGTTCCTAC)
- recombinant UMI read abundance (log10): 0.00959

Sequence: CTTGTTCCATGGACCGGTTTTCCCGGTAATCCGTATTTGGT (site GTTGTTCCTAC)
- recombinant UMI read abundance (log10): 0.0201

Sequence: CTTGTTCCATGGACCGGTTTTCCCGGTAATCCGTATTTGGT (site TTTGTTCCTAC)
- recombinant UMI read abundance (log10): 0.0168

Sequence: CTTTACGCATGGACCGGTTTTCCCGGTAATCCGTATTTGTA (site CTTTACGCTTA)
- recombinant UMI read abundance (log10): 0.0146

Sequence: CTTTAGACATGGACCGGTTTTCCCGGTAATCCGTATTTGAG (site CATTAGACTCT)
- recombinant UMI read abundance (log10): 0.351

Sequence: CTTTAGACATGGACCGGTTTTCCCGGTAATCCGTATTTGAG (site CCTTAGACTCT)
- recombinant UMI read abundance (log10): 0

Sequence: CTTTAGACATGGACCGGTTTTCCCGGTAATCCGTATTTGAG (site CGTTAGACTCT)
- recombinant UMI read abundance (log10): 0.118

Sequence: CTTTAGACATGGACCGGTTTTCCCGGTAATCCGTATTTGAG (site CTTTAGACTCT)
- recombinant UMI read abundance (log10): 1.31

Sequence: CTTTATACATGGACCGGTTTTCCCGGTAATCCGTATTTGTT (site CTTTATACTAA)
- recombinant UMI read abundance (log10): 0.121

Sequence: CTTTATTCATGGACCGGTTTTCCCGGTAATCCGTATTTGCG (site CTTTATTCTCG)
- recombinant UMI read abundance (log10): 1.11

Sequence: CTTTGCCCATGGACCGGTTTTCCCGGTAATCCGTATTTGCT (site CTTTGCCCTAG)
- recombinant UMI read abundance (log10): 0.182

From the supplement of paper PMC11208160
